One block for each compound: values may come before it.
How the values were obtained:
MCF7 = test: Antiproliferation activity against human MCF7 cells assessed as inhibition of cell proliferation; format: functional, cell-based
AU565 = test: Antiproliferation activity against human AU565 cells assessed as inhibition of cell proliferation; format: functional, cell-based
SW48 [1] = test: Antitumor activity against human SW48 cells xenografted in nude rat assessed as reduction in tumor growth at 45 mg/kg, po administered twice daily for 2 days per week for 3 weeks and measured on day 27 relative to untreated control; format: functional
SW48 [2] = test: Antitumor activity against human SW48 cells xenografted in nude rat assessed as reduction in tumor growth at 15 mg/kg, po administered twice daily for 2 days per week for 3 weeks and measured on day 27 relative to untreated control; format: functional
HCC1806 = test: Antiproliferation activity against human HCC1806 cells assessed as inhibition of cell proliferation; format: functional, cell-based
HCT-116 [3] = test: Antitumor activity against human HCT116 cells xenografted in SCID mouse assessed as reduction in tumor bulk at 30 mg/kg, po bid for 12 days relative to untreated control; format: functional
SW48 [4] = test: Antitumor activity against human SW48 cells xenografted in nude rat assessed as reduction in tumor growth at 45 mg/kg, po administered twice daily for 2 days per week measured on day 10 relative to untreated control; format: functional
[5] = Plasma concentration in F344/N Jcl-rnu rat xenografted with luciferase expressing human HeLa cells at 32 mg/kg, po BID for 2 days; format: ADME, organism-based
HCT-116 [6] = test: Antitumor activity against human HCT116 cells xenografted in SCID mouse assessed as reduction in tumor bulk at 15 mg/kg, po bid for 12 days relative to untreated control; format: functional
SW48 [7] = test: Antitumor activity against human SW48 cells xenografted in nude rat assessed as reduction in tumor growth at 15 mg/kg, po administered twice daily for 2 days per week measured on day 10 relative to untreated control; format: functional
CAL-85-1 = test: Antiproliferation activity against human CAL851 cells assessed as inhibition of cell proliferation; format: functional, cell-based
HCC1143 = test: Antiproliferation activity against human HCC1143 cells assessed as inhibition of cell proliferation; format: functional, cell-based
[8] = Plasma concentration in F344/N Jcl-rnu rat xenografted with luciferase expressing human HeLa cells at 16 mg/kg, po BID for 2 days; format: ADME, organism-based
HL-60 [9] = test: Antitumor activity against human HL60 cells xenografted in rat assessed as inhibition of tumor growth at 25 mg/kg, iv bid; format: functional; conditions: HL-60, iv, read-out: TGI
SW-620 = test: Growth inhibition of human SW620 cells incubated for 72 hrs by MTT assay; format: functional; conditions: SW-620, 72 h
[10] = Inhibition of CYP450 (unknown origin); format: ADME, Homo sapiens
A2780 = test: Growth inhibition of human A2780 cells incubated for 72 hrs by MTT assay; format: functional; conditions: A2780, 72 h
HCT-116 [11] = test: Antitumor activity against human HCT116 cells xenografted in nude mouse assessed as reduction in tumor size at 2 mg/kg/hr; format: functional, organism-based; set-up: scale not given: the % may be the effect or the level left
HL-60 [12] = test: Antitumor activity against human HL60 cells xenografted in nude mouse assessed as reduction in tumor size at 75 mg/kg, ip bid for 13 days; format: functional, organism-based; set-up: scale not given: the % may be the effect or the level left
[13] = molecular target: T1, Aurora kinase B/Inner centromere protein (Homo sapiens, UniProt Q96GD4); test: Inhibition of Aurora B/INCENP (unknown origin) pre-incubated for 1 hr followed by FL-PKAtide substrate and ATP addition; format: protein-complex assay
[14] = molecular target: T1, Aurora kinase B/Inner centromere protein; test: Inhibition of Aurora B/INCENP (unknown origin) assessed as affinity constant pre-incubated for 1 hr followed by FL-PKAtide substrate and ATP addition; format: protein-complex assay
[15] = molecular target: Aurora kinase B/Inner centromere protein (Homo sapiens) (UniProt Q96GD4+Q9NQS7); test: Inhibition of Aurora B/INCENP (unknown origin) assessed as inhibitor-enzyme complex half life pre-incubated for 1 hr followed by FL-PKAtide substrate and ATP addition; format: protein-complex assay
[16] = Suppression of cell mitosis in human multiple myeloma cells; format: functional
MM1.S [17] = test: Antitumor activity against human MM1S cells xenografted in gamma-irradiated CB17 SCID mouse assessed as inhibition of tumor growth at 15 mg/kg, po dosed daily for 21 days; format: functional; conditions: light or radiation study, 504 h, read-out: TGI
MM1.S [18] = test: Antitumor activity against human MM1S cells xenografted in gamma-irradiated CB17 SCID mouse assessed as inhibition of tumor growth at 30 mg/kg, po dosed daily for 21 days; format: functional; conditions: light or radiation study, 504 h, read-out: TGI
[19] = Growth inhibition of in human QGP1 cells incubated for 72 hrs; format: functional, cell-based; conditions: QGP-1, 72 h
[20] = Growth inhibition of in human BON1 cells incubated for 72 hrs; format: functional, cell-based
[21] = Growth inhibition of in human MIP101 cells incubated for 72 hrs; format: functional, cell-based
PC-3 [22] = test: Antitumor activity against human PC3 cells xenografted in nude mouse assessed as inhibition of tumor growth at 10 mg/kg, po qd; format: functional; conditions: PC-3, po, read-out: TGI
PC-3 [23] = test: Antitumor activity against human PC3 cells xenografted in nude mouse assessed as inhibition of tumor growth at 30 mg/kg, po qd; format: functional; conditions: PC-3, po, read-out: TGI
HCT-116 [24] = test: Growth inhibition of human HCT116 cells by XTT assay; format: functional, cell-based
HT-29 = test: Growth inhibition of human HT-29 cells by XTT assay; format: functional, cell-based
KCL-22 = test: Induction of apoptosis in human KCL22 cells by Annexin V staining based assay; format: functional, cell-based
HeLa = test: Growth inhibition of human HeLa cells by XTT assay; format: functional, cell-based

T1 sequence (Q96GD4 whole entry): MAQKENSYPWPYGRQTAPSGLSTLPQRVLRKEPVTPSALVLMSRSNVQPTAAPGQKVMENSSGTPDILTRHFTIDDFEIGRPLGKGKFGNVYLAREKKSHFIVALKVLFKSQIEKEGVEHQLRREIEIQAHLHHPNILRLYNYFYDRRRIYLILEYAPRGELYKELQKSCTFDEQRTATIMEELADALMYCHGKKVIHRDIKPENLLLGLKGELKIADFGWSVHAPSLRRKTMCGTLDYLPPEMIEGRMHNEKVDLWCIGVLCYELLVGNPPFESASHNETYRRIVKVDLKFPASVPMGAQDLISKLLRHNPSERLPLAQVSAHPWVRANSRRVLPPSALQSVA
T1 sequence (Q9NQS7 whole entry, further chain): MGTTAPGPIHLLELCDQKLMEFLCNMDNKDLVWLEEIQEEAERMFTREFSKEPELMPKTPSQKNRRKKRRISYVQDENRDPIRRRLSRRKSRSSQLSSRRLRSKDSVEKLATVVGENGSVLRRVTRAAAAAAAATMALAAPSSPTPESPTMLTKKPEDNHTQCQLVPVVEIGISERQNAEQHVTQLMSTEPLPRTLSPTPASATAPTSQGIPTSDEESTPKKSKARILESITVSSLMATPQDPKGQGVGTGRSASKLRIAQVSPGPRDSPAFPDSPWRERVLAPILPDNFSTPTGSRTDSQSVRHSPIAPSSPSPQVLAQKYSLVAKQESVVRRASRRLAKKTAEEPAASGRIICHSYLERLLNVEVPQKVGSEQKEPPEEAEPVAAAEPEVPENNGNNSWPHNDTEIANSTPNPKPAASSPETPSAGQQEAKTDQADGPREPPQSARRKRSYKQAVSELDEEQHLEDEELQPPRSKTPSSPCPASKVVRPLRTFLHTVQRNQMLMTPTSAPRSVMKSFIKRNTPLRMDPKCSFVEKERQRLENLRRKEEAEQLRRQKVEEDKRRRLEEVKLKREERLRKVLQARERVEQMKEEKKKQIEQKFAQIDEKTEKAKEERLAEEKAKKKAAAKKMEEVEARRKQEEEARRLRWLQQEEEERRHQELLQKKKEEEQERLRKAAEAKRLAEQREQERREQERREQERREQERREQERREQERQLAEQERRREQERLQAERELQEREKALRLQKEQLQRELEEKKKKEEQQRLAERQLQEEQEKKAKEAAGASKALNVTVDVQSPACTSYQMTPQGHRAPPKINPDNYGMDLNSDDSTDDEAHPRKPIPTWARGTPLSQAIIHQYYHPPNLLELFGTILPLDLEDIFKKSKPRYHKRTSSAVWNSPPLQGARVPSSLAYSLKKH

SMILES: O=C(O)[C@]1(Cc2cccc(Nc3nccs3)n2)CC[C@@H](Oc2cccc(Cl)c2F)CC1 [MK-5108]
- IC50 (MCF7): 520 nM
- IC50 (AU565): 450 nM
- T/C (SW48 [1]): 32%
- T/C (SW48 [2]): 58%
- IC50 (HCC1806): 560 nM
- T/C (HCT-116 [3]): 6%
- T/C (SW48 [4]): 7%
- concentration at 48 h [5]: 4.4 µM
- T/C (HCT-116 [6]): 10%
- T/C (SW48 [7]): 35%
- IC50 (CAL-85-1): 740 nM
- IC50 (HCC1143): 420 nM
- concentration at 48 h [8]: 1.7 µM

SMILES: CO[C@@H](C(=O)N1Cc2[nH]nc(NC(=O)c3ccc(N4CCN(C)CC4)cc3)c2C1)c1ccccc1 [DANUSERTIB]
- inhibition in vivo at 25 mg/kg (HL-60 [9]): 75%

- GI50 (SW-620): 140 nM
- IC50 [10]: > 10000 nM
- GI50 (A2780): 300 nM
SMILES: Cc1cc(CN2CCN(c3c(Br)cnc4nc(-c5ccc(N6CCN(C)CC6)cc5)[nH]c34)CC2)no1

SMILES: Cc1cc(Nc2cc(N3CCN(C)CC3)nc(Sc3ccc(NC(=O)C4CC4)cc3)n2)n[nH]1
- Activity (HCT-116 [11]): 56%
- Activity (HL-60 [12]): 98%

- IC50 [13]: 15 nM
- Ki [14]: 0.02 nM
- T1/2 [15]: 15.3 h
SMILES: CCS(=O)(=O)c1cccc(-c2cc(C(=O)NC3CCN(C)CC3)c(C)c3[nH]c4ncc(C)cc4c23)c1 [TAK-901]

- IC50 [16]: 3 to 1710 nM
SMILES: COc1cc(Nc2ncc3c(n2)-c2ccc(Cl)cc2C(c2c(F)cccc2OC)=NC3)ccc1C(=O)O [ALISERTIB]
- inhibition in vivo at 15 mg/kg (MM1.S [17]): 42%
- inhibition in vivo at 30 mg/kg (MM1.S [18]): 80%

SMILES: COc1cc2c(Nc3ccc(NC(=O)c4ccccc4)cc3)ncnc2cc1OCCCN1CCOCC1
- IC50 [19]: 900 nM
- IC50 [20]: 3000 nM
- IC50 [21]: 3000 nM

SMILES: O=C(O)c1ccc(Nc2ncc3c(n2)-c2ccc(Cl)cc2C(c2c(F)cccc2F)=NC3)cc1 [MLN-8054]
- inhibition in vivo at 10 mg/kg (PC-3 [22]): 76%
- inhibition in vivo at 30 mg/kg (PC-3 [23]): 84%

SMILES: CCN1CCN(C(=O)Cc2ccc(Nc3ncc(F)c(Nc4ccc(C(=O)Nc5ccccc5Cl)cc4)n3)cc2)CC1
- IC50 (HCT-116 [24]): 190 to 378 nM
- IC50 (HT-29): 5600 nM
- IC50 (KCL-22): 5000 nM
- IC50 (HeLa): 416 nM

— ChEMBL document CHEMBL4265875, “A comprehensive review on Aurora kinase: Small molecule inhibitors and clinical trial studies” (Eur J Med Chem, 2017)
